In patent EP0446604A2, “Pyridine and related aza heterocycle derivatives as cardiovascular agents” (AMERICAN CYANAMID COMPANY, priority 1990, dated 1991):

Experiments:
[1] = molecular target: T1, thromboxane synthetase enzyme (Rattus norvegicus, UniProt P49430); assay: Inhibition of thromboxane (TXB2) formation in washed rat platelets, TXB2 radioimmunoassay; format: biochemical, Okamoto-Aoki spontaneously hypertensive rats (SHR); conditions: Concentration 1x10^-4M, platelet suspension incubated 10 minutes at 37 °C
T1 construct: from tissue; host or cells: washed blood platelets from Okamoto-Aoki spontaneously hypertensive rats (SHR)
T1 sequence (P49430 1-533): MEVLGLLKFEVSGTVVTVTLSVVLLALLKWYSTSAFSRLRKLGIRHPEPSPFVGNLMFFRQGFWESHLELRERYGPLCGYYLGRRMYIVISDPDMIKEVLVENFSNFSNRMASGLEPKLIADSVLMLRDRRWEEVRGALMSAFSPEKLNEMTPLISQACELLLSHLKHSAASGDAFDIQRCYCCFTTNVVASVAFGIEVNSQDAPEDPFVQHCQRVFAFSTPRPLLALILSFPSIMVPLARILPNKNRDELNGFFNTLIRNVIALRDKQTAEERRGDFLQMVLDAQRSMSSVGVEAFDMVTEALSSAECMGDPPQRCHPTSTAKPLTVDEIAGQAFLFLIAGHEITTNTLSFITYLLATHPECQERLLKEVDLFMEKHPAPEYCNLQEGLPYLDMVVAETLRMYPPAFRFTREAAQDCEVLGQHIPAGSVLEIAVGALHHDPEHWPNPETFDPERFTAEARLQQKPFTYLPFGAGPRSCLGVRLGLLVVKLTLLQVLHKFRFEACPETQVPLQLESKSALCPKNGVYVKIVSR
Experimental: Under urethan anesthesia, […] of arterial blood from Okamoto-Aoki spontaneously hypertensive rats (SHR) (Taconic Farms, Germantown, NY) between 19 and 24 weeks in age is collected in one ml of 3.2% sodium citrate in a polystyrene tube. The blood is diluted with 3 ml of cold saline and centrifuged at room temperature for 15 minutes at 460xg. The platelet rich plasma (PRP) is separated. The platelets are isolated by centrifuging the PRP for 10 minutes at 1060xg and are washed in 4 ml of cold oxygenated Krebs phosphate buffer, pH 7.4. The chilled platelets, recovered from centrifuging at 800xg for 10 minutes, are resuspended in oxygenated Krebs phosphate buffer and diluted to contain 4.5-6.0 x 10⁴ platelets/µ1. The inhibition of thromboxane (TX) formation is studied by determining the concentration of thromboxane B₂ (TXB₂), the stable hydrolysis product of TXA₂. Assay samples, prepared on ice, contain 200 µ1 platelet suspension, 50 µ1 saline, and 50 µ1 vehicle (saline) or drug under study. The samples are incubated for 10 minutes at 37 °C in a metabolic shaker. The reaction is terminated by immersing the tubes in an ice bath and adding 50 µl of 0.5M citric acid. The samples are centrifuged for 10 minutes in a refrigerated centrifuge and the supernatants thus obtained are decanted and stored at -20 °C. The TXB₂ content for each sample is determined by a direct radioimmunoassay (RIA) utilizing a TXB₂ specific RIA kit purchased from New England Nuclear, Boston, MA and expressed as pg TXB₂ formed per minute per sample, from which the percent inhibition of TXB₂ formation is calculated.

[2] = tested on: spontaneously hypertensive rats of the Okamoto strain; assay: Hypotensive activity in spontaneously hypertensive rats (method of Chan and Poorvin); format: in vivo; conditions: by gavage, 100 mg/kg or less, second identical dose 24 hours later; MABP measured 28 hours after initial dose; average MABP of the rats used 160±1.5 mm of mercury
Experimental: The novel compounds of the present invention are active hypotensive agents and were tested for hypotensive activity by the method of P.S. Chan and D. Poorvin, Clinical and Experimental Hypertension, 1 (6), 817-830 (1979). Male, 16 week old, spontaneously hypertensive rats of the Okamoto strain, from Taconic Farms, Germantown, New York, having an average mean arterial blood pressure of 160±1.5 mm of mercury, were used in the test. One to four rats were used per test compound. A rat is dosed by gavage with a test compound suspended in 2% pre-boiled starch at a concentration of 50 mg/ml, at a dose of 100 mg/kg of body weight or less, with 0.9% sodium chloride loading at a dose of 25 ml/kg of body weight. A second identical dose of the test compound, without sodium chloride loading is given 24 hours later. At 28 hours after the initial dose the mean arterial blood pressure (MABP) is measured. The procedure is repeated in a second and third rat when necessary. The results of this test on representative compounds of the present invention appear below in Table II.

[3] = tested on: Male mice of the Swiss Webster Strain; assay: Calcium chloride-induced arrhythmia in anesthetized mice (survival); format: in vivo; conditions: Mus musculus, iv, Dose = 10 mg/kg i.v.; calcium chloride 200 mg/kg i.v. bolus 5, 15 or 30 minutes after drug; observed 15 minutes; read-out: CaCl2 #Mice Surviving #Mice Tested (converted)
Excerpt: (§1) Intravenous administration of high doses of calcium or potassium chloride in animals produces cardiac arrhythmias, cardiac fibrillation and cardiac arrest. Any agent that can prevent these events is considered an antiarrhythmic/antifibrillatory agent. (Meth. and Find Exptl. Clin Pharmacol.2:223-252(1980); Pharmacol, Ther. 24:401-433 (1984); Experimental Cardiac and Antiarrhythmic Drugs, L. Szekeres and Gy. J. Dapp, Akademiai Kiado Preso, Budapest, 9-448 (1971).)
(§2) The method employed is as follows: Male mice of the Swiss Webster Strain (Charles River, Wilmington, MA) weighing 25-35 g are anesthetized with ethyl carbamate (urethan) (1.5g/kg body weight i.p.). A 25-gauge needle attached to PE-20 tubing is inserted into a caudal vein for drug administration. The lead II ECG is recorded by needle electrodes placed subcutaneously in the limbs. All data is collected on a Gould Brush recorder. Animals are observed 5 minutes before drug administration. A 5, 15, or 30 minute period following drug administration is allowed before the bolus injection of calcium chloride, 200 mg/kg i.v. or potassium chloride, 62.5 mg/kg i.v. Control mice receive 4 ml/kg of 0.9% sodium chloride i.v. Mice are observed an additional 15 minutes for arrhythmias, fibrillation, survival or death. Any compound at a dose of less than 20 mg/kg i.v. that protects 3 out of 6 mice from cardiac death in either the potassium or calcium chloride test, is considered active.

[4] = tested on: Male mice of the Swiss Webster Strain; assay: Potassium chloride-induced arrhythmia in anesthetized mice (survival); format: in vivo; conditions: Mus musculus, iv, Dose = 10 mg/kg i.v.; potassium chloride 62.5 mg/kg i.v. bolus 5, 15 or 30 minutes after drug; observed 15 minutes; read-out: KCl #Mice Surviving #Mice Tested (converted)
Excerpt: as §1, §2

O=[N+]([O-])c1cccnc1NCCCn1ccnc1 [Example 2, N-[3-(1H-Imidazol-1-yl)propyl]-3-nitro-2-pyridinamine]
inhibition at 100 µM [1]: 80%
Avg. MABP in mm Hg (No. of Rats) [2]: 98 (2) mm Hg
responders at 10 mg/kg [3]: 50%
responders at 10 mg/kg [4]: 66.7%

c1ccc2c(c1)nc(NCCCn1ccnc1)c1ccccc12 [Example 8, N-[3-(1H-Imidazol-1-yl)propyl]-6-phenanthridinamine]
inhibition at 100 µM [1]: 100%
Avg. MABP in mm Hg (No. of Rats) [2]: 103 (2) mm Hg
responders at 10 mg/kg [3]: 33.3%
responders at 10 mg/kg [4]: 100%

c1ccc2nc(NCCCn3ccnc3)ccc2c1 [Example 5, N-[3-(1H-Imidazol-1-yl)propyl]-2-quinolinamine]
inhibition at 100 µM [1]: 93%
Avg. MABP in mm Hg (No. of Rats) [2]: 97 (2) mm Hg
responders at 10 mg/kg [3]: 83.3%
responders at 10 mg/kg [4]: 50%
